# Measured values taken from ChEMBL document CHEMBL6134809 (Eur J Med Chem, 2025).
# Activity calls are given as the source filed them. No cut-off for these calls is given here.
# Assays:
# Pseudomonas aeruginosa [1] = test: Antibiofilm activity against Pseudomonas aeruginosa assessed as biofilm eradication at 4 times MIC measured after 24 hrs by crystal violet staining based analysis; assay type: functional
# Pseudomonas aeruginosa [2] = test: Antibiofilm activity against Pseudomonas aeruginosa PAO1 assessed as reduction in biofilm formation at 1/4 times MIC measured for 24 hrs in presence of 40 uM of FeCl3 by crystal violet staining; assay type: functional; design: scale not given: the % may be the effect or the level left
# HEK293 [3] = test: Cytotoxicity against HEK293 cells assessed as reduction in cell viability at 100 uM incubated for 16 hrs by MTT assay relative to control; assay type: toxicity, cell-based; conditions: human, hek293, 16 h
# Pseudomonas aeruginosa [4] = test: Antibacterial activity against Pseudomonas aeruginosa PAO1 overexpressing fpvA mutant up to 8 times MIC; assay type: functional, organism-based
# Pseudomonas aeruginosa [5] = test: Potency index, ratio of ciprofloxacin MIC to test compound MIC for antibacterial activity against Pseudomonas aeruginosa PAO1 assessed as bacterial growth inhibition by CLSI based broth microdilution method; assay type: functional
# Pseudomonas aeruginosa [6] = test: Antibacterial activity against Pseudomonas aeruginosa PAO1 assessed as bacterial growth inhibition by CLSI based broth microdilution method; assay type: functional
# Staphylococcus aureus [7] = test: Antibacterial activity against Staphylococcus aureus ATCC 25923 assessed as bacterial growth inhibition by CLSI based broth microdilution method; assay type: functional
# Pseudomonas aeruginosa [8] = test: Antibiofilm activity against Pseudomonas aeruginosa assessed as reduction in biofilm eradication at 1/4 times MIC measured after 24 hrs by crystal violet staining based analysis; assay type: functional, organism-based
# Pseudomonas aeruginosa [9] = test: Antibacterial activity against Pseudomonas aeruginosa 1129 assessed as bacterial growth inhibition by CLSI based broth microdilution method; assay type: functional
# Pseudomonas aeruginosa [10] = test: Antibiofilm activity against Pseudomonas aeruginosa PAO1 assessed as […] biofilm biomass at MIC measured for 24 hrs by crystal violet staining; assay type: functional
# Staphylococcus aureus [11] = test: Antibacterial activity against methicillin-resistant Staphylococcus aureus ATCC 513045 assessed as bacterial growth inhibition by CLSI based broth microdilution method; assay type: functional
# A549 = test: Cytotoxicity against human A549 cells assessed as reduction in cell viability up to 100 uM incubated for 16 hrs by MTT assay; assay type: toxicity, cell-based; conditions: a549, 16 h
# Pseudomonas aeruginosa [12] = test: Potency index, ratio of ciprofloxacin MIC to test compound MIC for antibiofilm activity against Pseudomonas aeruginosa PAO1 measured for 24 hrs by crystal violet staining; assay type: functional
# Staphylococcus aureus [13] = test: Antibacterial activity against methicillin-resistant Staphylococcus aureus ATCC 515992 assessed as bacterial growth inhibition by CLSI based broth microdilution method; assay type: functional
# Pseudomonas aeruginosa [14] = test: Potency index, ratio of ciprofloxacin MIC to test compound MIC for antibiofilm activity against Pseudomonas aeruginosa PAO1 assessed as […] biofilm biomass at 1/2 times MIC measured for 24 hrs by crystal violet staining; assay type: functional
# Pseudomonas aeruginosa [15] = test: Antibiofilm activity against Pseudomonas aeruginosa PAO1 assessed as reduction in biofilm formation at 1/2 times MIC measured for 24 hrs in presence of 10 uM of FeCl3 by crystal violet staining; assay type: functional; design: scale not given: the % may be the effect or the level left
# [16] = Toxicity in Caenorhabditis elegans infected with Pseudomonas aeruginosa PAO1 assessed as nematode survival at MIC incubated at 48 hrs relative to control
# Pseudomonas aeruginosa [17] = test: Antibiofilm activity against Pseudomonas aeruginosa PAO1 assessed as reduction in biofilm formation at MIC measured for 24 hrs in presence of 40 uM of FeCl3 by crystal violet staining; assay type: functional; design: scale not given: the % may be the effect or the level left
# Pseudomonas aeruginosa [18] = test: Antibacterial activity against wild type Pseudomonas aeruginosa PAO1 […] delta pvdS up to 8 times MIC; assay type: functional, organism-based
# Pseudomonas aeruginosa [19] = test: Selectivity ratio of MIC for antibacterial activity against Pseudomonas aeruginosa PAO1 overexpressing fpvA mutant up to 8 times MIC to MIC for antibacterial activity against Pseudomonas aeruginosa PAO1 up to 8 times MIC; assay type: functional
# Pseudomonas aeruginosa [20] = test: Antibiofilm activity against Pseudomonas aeruginosa PAO1 assessed as reduction in biofilm formation at MIC measured for 24 hrs in presence of 10 uM of FeCl3 by crystal violet staining; assay type: functional; design: scale not given: the % may be the effect or the level left
# Pseudomonas aeruginosa [21] = test: Inhibition of swimming motility in Pseudomonas aeruginosa PAO1 at 4.27 uM incubated for 16 hrs relative to control; assay type: functional
# Pseudomonas aeruginosa [22] = test: Antivirulence activity against Pseudomonas aeruginosa PAO1 assessed as reduction in pyocyanin level in flask incubated for 24 hrs by absorbance based assay relative to control; assay type: functional, organism-based
# Pseudomonas aeruginosa [23] = test: Inhibition of twitching motility in Pseudomonas aeruginosa PAO1 at 4.27 uM incubated for 16 hrs relative to control; assay type: functional
# Pseudomonas aeruginosa [24] = test: Antibiofilm activity against Pseudomonas aeruginosa PAO1 measured for 24 hrs by crystal violet staining; assay type: functional
# Pseudomonas aeruginosa [25] = test: Antibacterial activity against wild type Pseudomonas aeruginosa PAO1 up to 8 times MIC; assay type: functional, organism-based
# Pseudomonas aeruginosa [26] = test: Antivirulence activity against Pseudomonas aeruginosa PAO1 assessed as reduction in pyocyanin level incubated for 24 hrs by absorbance based assay; assay type: functional, organism-based
# Pseudomonas aeruginosa [27] = test: Antivirulence activity against Pseudomonas aeruginosa PAO1 assessed as reduction in pyocyanin level at 4.27 uM incubated for 24 hrs by absorbance based assay relative to control; assay type: functional; design: scale not given: the % may be the effect or the level left
# Pseudomonas aeruginosa [28] = test: Antibiofilm activity against Pseudomonas aeruginosa PAO1 assessed as […] biofilm biomass at 1/2 times MIC measured for 24 hrs by crystal violet staining; assay type: functional
# Pseudomonas aeruginosa [29] = test: Antibacterial activity against Pseudomonas aeruginosa 1167 assessed as bacterial growth inhibition by CLSI based broth microdilution method; assay type: functional
# [30] = Toxicity in Caenorhabditis elegans infected with Pseudomonas aeruginosa PAO1 assessed as nematode survival at MIC incubated at 12 hrs
# Pseudomonas aeruginosa [31] = test: Antibiofilm activity against Pseudomonas aeruginosa PAO1 assessed as […] biofilm biomass at 1/4 times MIC measured for 24 hrs by crystal violet staining; assay type: functional
# Pseudomonas aeruginosa [32] = test: Antibacterial activity against Pseudomonas aeruginosa FB assessed as bacterial growth inhibition by CLSI based broth microdilution method; assay type: functional
# Pseudomonas aeruginosa [33] = test: Inhibition of twitching motility in Pseudomonas aeruginosa PAO1 incubated for 16 hrs; assay type: functional, organism-based; conditions: dose 4.27 µM
# Pseudomonas aeruginosa [34] = test: Antibacterial activity against Pseudomonas aeruginosa 1121 assessed as bacterial growth inhibition by CLSI based broth microdilution method; assay type: functional
# HEK293 [35] = test: Cytotoxicity against HEK293 cells assessed as reduction in cell viability at 100 uM incubated for 16 hrs by MTT assay; assay type: toxicity, cell-based; conditions: human, hek293, 16 h
# Staphylococcus aureus [36] = test: Antibacterial activity against methicillin-resistant Staphylococcus aureus ATCC 43300 assessed as bacterial growth inhibition by CLSI based broth microdilution method; assay type: functional
# Pseudomonas aeruginosa [37] = test: Inhibition of swarming motility in Pseudomonas aeruginosa PAO1 at 4.27 uM incubated for 16 hrs relative to control; assay type: functional
# Pseudomonas aeruginosa [38] = test: Antibiofilm activity against Pseudomonas aeruginosa PAO1 assessed as reduction in biofilm formation at 1/2 times MIC measured for 24 hrs in presence of 40 uM of FeCl3 by crystal violet staining; assay type: functional; design: scale not given: the % may be the effect or the level left
# Pseudomonas aeruginosa [39] = test: Antivirulence activity against Pseudomonas aeruginosa PAO1 assessed as reduction in rhamnolipid level at 4.27 uM incubated for 24 hrs by absorbance based assay relative to control; assay type: functional; design: scale not given: the % may be the effect or the level left
# Pseudomonas aeruginosa [40] = test: Antibiofilm activity against Pseudomonas aeruginosa PAO1 assessed as reduction in biofilm formation at 1/4 times MIC measured for 24 hrs in presence of 10 uM of FeCl3 by crystal violet staining; assay type: functional; design: scale not given: the % may be the effect or the level left
# [41] = Toxicity in Caenorhabditis elegans infected with Pseudomonas aeruginosa PAO1 assessed as nematode survival at MIC incubated at 24 hrs relative to control
# Pseudomonas aeruginosa [42] = test: Antivirulence activity against Pseudomonas aeruginosa PAO1 assessed as reduction in rhamnolipid level incubated for 24 hrs by absorbance based assay; assay type: functional, organism-based
compound,measurement,setting,value
O=C(O)c1cn(C2CC2)c2cc(N3CCNCC3)c(F)cc2c1=O [CIPROFLOXACIN],Activity,Pseudomonas aeruginosa [1],42.6%
same,Activity,Pseudomonas aeruginosa [2],89.5%
same,Activity,HEK293 [3],40%
same,Activity,Pseudomonas aeruginosa [4],Active
Cn1cc(O)c(=O)cc1COC(=O)c1cn(C2CC2)c2cc(N3CCNCC3)c(F)cc2c1=O,Ratio,Pseudomonas aeruginosa [5],3
same,MIC,Pseudomonas aeruginosa [6],1.07 µM
same,MIC,Staphylococcus aureus [7],4.27 µM
same,Activity,Pseudomonas aeruginosa [8],Active
same,MIC,Pseudomonas aeruginosa [9],4.27 µM
same,Activity,Pseudomonas aeruginosa [10],52.8%
same,Activity,Pseudomonas aeruginosa [1],75.7%
same,MIC,Staphylococcus aureus [11],4.27 µM
same,Activity,A549,Non-toxic
same,Ratio,Pseudomonas aeruginosa [12],8
same,MIC,Staphylococcus aureus [13],> 200 µM
same,Ratio,Pseudomonas aeruginosa [14],3
same,Activity,Pseudomonas aeruginosa [15],38.3%
same,survival at 48 h,[16],50%
same,Activity,Pseudomonas aeruginosa [2],197.5%
same,Activity,Pseudomonas aeruginosa [17],179.6%
same,Activity,Pseudomonas aeruginosa [18],inactive
same,Ratio,Pseudomonas aeruginosa [19],2
same,Activity,Pseudomonas aeruginosa [20],52.8%
same,inhibition at 4.27 µM,Pseudomonas aeruginosa [21],64.9%
same,Activity,Pseudomonas aeruginosa [22],Active
same,inhibition at 4.27 µM,Pseudomonas aeruginosa [23],44.6%
same,MIC,Pseudomonas aeruginosa [24],8.54 µM
same,Activity,Pseudomonas aeruginosa [25],inactive
same,Activity,Pseudomonas aeruginosa [26],Active
same,Activity,Pseudomonas aeruginosa [27],~20%
same,Activity,Pseudomonas aeruginosa [28],38.3%
same,MIC,Pseudomonas aeruginosa [29],2.13 µM
same,Activity,[30],Non-toxic
same,Activity,Pseudomonas aeruginosa [31],42.4%
same,MIC,Pseudomonas aeruginosa [32],2.13 µM
same,inhibition,Pseudomonas aeruginosa [33],Dose-dependent-effect
same,MIC,Pseudomonas aeruginosa [34],2.13 µM
same,Activity,HEK293 [35],Non-toxic
same,MIC,Staphylococcus aureus [36],2.13 µM
same,inhibition at 4.27 µM,Pseudomonas aeruginosa [37],53.7%
same,Activity,Pseudomonas aeruginosa [38],204.8%
same,Activity,Pseudomonas aeruginosa [39],~20%
same,Activity,Pseudomonas aeruginosa [40],42.4%
same,Activity,[41],Toxic
same,Activity,Pseudomonas aeruginosa [42],Active
Cc1cc(=O)c(O)c(CNC(=O)c2cn(C3CC3)c3cc(N4CCNCC4)c(F)cc3c2=O)n1C,MIC,Pseudomonas aeruginosa [6],17.1 µM
same,MIC,Staphylococcus aureus [7],34.2 µM
same,MIC,Pseudomonas aeruginosa [9],34.2 µM
same,Activity,Pseudomonas aeruginosa [10],75.3%
same,MIC,Staphylococcus aureus [11],68.5 µM
same,MIC,Staphylococcus aureus [13],> 200 µM
same,MIC,Pseudomonas aeruginosa [24],66.5 µM
same,Activity,Pseudomonas aeruginosa [28],78.1%
same,MIC,Pseudomonas aeruginosa [29],17.1 µM
same,Activity,Pseudomonas aeruginosa [31],93.6%
same,MIC,Pseudomonas aeruginosa [32],68.5 µM
same,MIC,Pseudomonas aeruginosa [34],68.5 µM
same,MIC,Staphylococcus aureus [36],34.2 µM
COC(=O)c1cn(C2CC2)c2cc(N3CCNCC3)c(F)cc2c1=O,MIC,Pseudomonas aeruginosa [6],185 µM
same,MIC,Staphylococcus aureus [7],> 200 µM
same,MIC,Pseudomonas aeruginosa [9],> 200 µM
same,Activity,Pseudomonas aeruginosa [10],109.7%
same,MIC,Staphylococcus aureus [11],> 200 µM
same,MIC,Staphylococcus aureus [13],> 200 µM
same,inhibition,Pseudomonas aeruginosa [21],inactive
same,inhibition,Pseudomonas aeruginosa [23],inactive
same,MIC,Pseudomonas aeruginosa [24],185 µM
same,Activity,Pseudomonas aeruginosa [28],145.2%
same,MIC,Pseudomonas aeruginosa [29],185 µM
same,Activity,Pseudomonas aeruginosa [31],122.4%
same,MIC,Pseudomonas aeruginosa [32],> 200 µM
same,MIC,Pseudomonas aeruginosa [34],> 200 µM
same,MIC,Staphylococcus aureus [36],> 200 µM
same,inhibition,Pseudomonas aeruginosa [37],inactive
Cn1cc(O)c(=O)cc1CNC(=O)c1cn(C2CC2)c2cc(N3CCNCC3)c(F)cc2c1=O,Ratio,Pseudomonas aeruginosa [5],3
same,MIC,Pseudomonas aeruginosa [6],8.31 µM
same,MIC,Staphylococcus aureus [7],16.6 µM
same,MIC,Pseudomonas aeruginosa [9],16.6 µM
same,Activity,Pseudomonas aeruginosa [10],71.6%
same,MIC,Staphylococcus aureus [11],33.2 µM
same,MIC,Staphylococcus aureus [13],> 200 µM
same,MIC,Pseudomonas aeruginosa [24],68.5 µM
same,Activity,Pseudomonas aeruginosa [28],82.4%
same,MIC,Pseudomonas aeruginosa [29],8.31 µM
same,Activity,Pseudomonas aeruginosa [31],88.5%
same,MIC,Pseudomonas aeruginosa [32],8.31 µM
same,MIC,Pseudomonas aeruginosa [34],16.6 µM
same,MIC,Staphylococcus aureus [36],16.6 µM
